# Laboratory results from patent US9981946B2, “Pyridine-substituted 2-aminopyridine protein kinase inhibitors” (CHIA TAI TIANQING PHARMACEUTICAL GROUP CO., LTD, priority 2014, dated 2018).
# Tested on: human non-small cell lung carcinoma NCI-H2228 xenografts
# Experiment: Therapeutic effect on NCI-H2228 xenografts in nude mice
# Assay type: in vivo
# Settings: D0-13 once a day; for Average tumor volume D0: D0 baseline at grouping
# Experimental: The following experimental method was used: Nude mice was inoculated subcutaneously with human non-small cell lung carcinoma NCI-H2228 cells, the mice were randomly grouped (D0) and administered until the tumor grew to 80-200 mm^3. Measuring the tumor volume, weighing the mice, and recording the data twice a week. Tumor volume (V) was calculated as:
# […], wherein a and b represented length and width respectively.
# T/C(%)=(T-T0)/(C-C0)×100, wherein T, C respectively represented the tumor volume at the end of the experiment; T0, C0 respectively represented the tumor volume at the start of the experiment.
# When tumor regression was observed, T/C(%)=(T-T0)/T0×100, wherein T was the tumor volume at the end of the experiment; T0 was the tumor volume at the start of the experiment.
# In the table: the solvent group (distilled water containing 0.1% Tween-80) was a control group, the compound of the treatment groups was formulated with distilled water containing 0.1% Tween-80.
# D0-20 represented administrating once a day from day 0 (D0) for consecutive 21 days; D0-13 represented administrating once a day from day 0 (D0) for consecutive 14 days.
# P value was obtained from student's t test compared with the control group.
# n was the number of mice, for the control group, the number of test mice n was 12, and n was 6 for the treatment group.
smiles,measurement,setting,value
"COc1cc(N2CCNC[C@@H]2C)ncc1-c1cnc(N)c(O[C@H](C)c2c(Cl)ccc(F)c2Cl)c1 [compound of formula I, 5-((R)-1-(2,6-dichloro-3-fluorophenyl)ethoxy)-4′-methoxy-6′-((S)-2-methylpiperazin-1-yl)-3,3′-bipyridin-6-amine]",Average tumor volume D0,12.5 mg/kg PO,134.3 mm^3
same,% T/C D21,"12.5 mg/kg PO, D21",22%
same,Average tumor volume D21,"12.5 mg/kg PO, D21",394.8 mm^3
same,% Inhibition rate D21,"12.5 mg/kg PO, D21, 100-T/C(%)",78%
same,Average tumor volume D0,25 mg/kg PO,131.0 mm^3
same,Average tumor volume D21,"25 mg/kg PO, D21",21.7 mm^3
same,% T/C D21,"25 mg/kg PO, D21, tumor regression, T/C=(T-T0)/T0×100",−83%
